Like-named read-outs stand apart in the source and are kept apart here.
Assay: Plasma pharmacokinetics of Compound 2 in PD participants (LC-MS/MS)
Format: in vivo, human
Method: Participants were randomised to 3 doses of once-daily orally administered Compound 2 or placebo, in sequential cohort design, and were followed up to 36 weeks (52 weeks for Japanese participants). Participants in the low-dose group received 4 mg of Compound 2 as a once daily oral dose; participants in the mid-dose group received 8 mg of Compound 2 a once daily oral dose; and participants in the high-dose group received 15 mg of Compound 2 a once daily oral dose.
Analyses were based on all available data from participants who enrolled in part 1 of the trial and were randomised to receive either Compound 2 or placebo for up to 52 weeks for Japanese participants and 36 weeks for the ROW population. As part 1 was an exploratory, dose-escalation study, the sample size was not based on a statistical power calculation. Participants included in the primary safety analyses were those who were randomized and received at least one dose of Compound 2 or placebo. A data monitoring committee was responsible for overseeing the safety of patients and the risk/benefit ratio throughout the study. Duration of exposure to Compound 2 was different among the doses, as per the sequential cohort design, with the low- and high-dose cohorts commencing the study first and last, respectively. For pharmacokinetics, plasma parameters were calculated using noncompartmental methods, from plasma Compound 2 concentrations obtained after single dose administration. AUC0-24 and AUC0-48 were calculated using the trapezoidal method over a predefined time period of 24 hours or 48 hours, respectively. CLss/F was calculated using the following equation: CLss/F=Dose/AUCτ, where τ is the dosing interval. For pharmacodynamics, percent reduction of plasma or CSF GL-1 from baseline was calculated as (value−baseline)/baseline×100. Formal statistical testing was not conducted on MDS-UPDRS scale assessments.
The secondary outcome was to evaluate the pharmacokinetic profile of Compound 2 in plasma and cerebrospinal fluid (CSF) over a 4-week period. Plasma pharmacokinetic parameters included maximum plasma concentration (Cmax), time to Cmax (tmax), and area under the plasma concentration versus time curve from 0 to 24 h (AUC0-24). All parameters were assessed at Week 0 and Week 4 after treatment. In addition, AUC0-48 was assessed at Week 0, trough plasma concentration observed just before treatment administration during repeated dosing (Ctrough) was assessed at Weeks 2, 4, and 8 (FIG. 3), and total systemic clearance from plasma at steady state (CLSS/F) was assessed at Week 4. Plasma samples were collected at 1 hour pre-dose and 1, 2, 4, 8, 24, and 48 hours postdose. Compound 2 concentration in plasma was determined using a liquid chromatography tandem mass spectrometry method with a lower limit of quantification of 0.500 ng/mL. CSF samples were collected by lumbar puncture during the screening period (within 14 days prior to randomisation) or on the day of randomisation, and at Week 4, within 2 to 4 hours postdose. Compound 2 concentration in CSF was determined using a liquid chromatography tandem mass spectrometry method with a lower limit of quantification of 0.100 ng/mL.

## CC(C)(NC(=O)O[C@@H]1CN2CCC1CC2)c1csc(-c2ccc(F)cc2)n1 [Compound 2, (S)-quinuclidin-3-yl (2-(2-(4-fluorophenyl)thiazol-4-yl)propan-2-yl)carbamate]
Japanese and ROW cohorts, 4, 8, 15 mg
  increase of Compound 2 concentration in plasma with dose: close to dose-proportional manner
human, plasma, oral, plasma, Week 4, Japanese participants, across all doses tested, read-out: median tmax values
  Tmax: 2.1 to 4.33 h
human, plasma, oral, plasma, Week 4, ROW participants, across all doses tested, read-out: median tmax values
  Tmax: 1.96 to 3.55 h
human, plasma, po, 4 mg, Week 4, Japan, Low 4 mg once daily oral, n = 3
  Cmax at 4 weeks: 56.3 ng/mL
human, plasma, po, 4 mg, plasma, Day 1, Japan, Low 4 mg oral, n = 3, read-out: AUC0-24, Geometric mean
  AUC(0-t): 390 ng·h/mL
human, plasma, po, 4 mg, plasma, Day 1, Japan, Low 4 mg oral, n = 3, read-out: AUC0-24, mean
  AUC(0-t): 393 ng·h/mL
human, plasma, po, 4 mg, plasma, Day 1, Japan, Low 4 mg oral, n = 3, read-out: AUC0-48, Geometric mean
  AUC(0-t): 660 ng·h/mL
human, plasma, po, 4 mg, plasma, Day 1, Japan, Low 4 mg oral, n = 3, read-out: AUC0-48, mean
  AUC(0-t): 661 ng·h/mL
human, plasma, po, 4 mg, plasma, Day 1, Japan, Low 4 mg oral, n = 3, read-out: Cmax, Geometric mean
  Cmax: 21.7 ng/mL
human, plasma, po, 4 mg, plasma, Day 1, Japan, Low 4 mg oral, n = 3, read-out: Cmax, mean
  Cmax: 21.8 ng/mL
human, plasma, po, 4 mg, plasma, Day 1, Japan, Low 4 mg oral, n = 3, read-out: tmax, median
  Tmax: 4.33 h
human, plasma, po, 4 mg, plasma, Day 1, ROW, Low 4 mg oral, n = 4, read-out: AUC0-24, Geometric mean
  AUC(0-t): 249 ng·h/mL
human, plasma, po, 4 mg, plasma, Day 1, ROW, Low 4 mg oral, n = 4, read-out: AUC0-24, mean
  AUC(0-t): 255 ng·h/mL
human, plasma, po, 4 mg, plasma, Day 1, ROW, Low 4 mg oral, n = 4, read-out: AUC0-48, Geometric mean
  AUC(0-t): 419 ng·h/mL
human, plasma, po, 4 mg, plasma, Day 1, ROW, Low 4 mg oral, n = 4, read-out: AUC0-48, mean
  AUC(0-t): 431 ng·h/mL
human, plasma, po, 4 mg, plasma, Day 1, ROW, Low 4 mg oral, n = 4, read-out: Cmax, Geometric mean
  Cmax: 13.6 ng/mL
human, plasma, po, 4 mg, plasma, Day 1, ROW, Low 4 mg oral, n = 4, read-out: Cmax, mean
  Cmax: 13.8 ng/mL
human, plasma, po, 4 mg, plasma, Day 1, ROW, Low 4 mg oral, n = 4, read-out: tmax, median
  Tmax: 4.07 h
human, plasma, po, 4 mg, plasma, Week 4, Japan, Low 4 mg once daily oral, n = 1, read-out: AUC0-24, Geometric mean
  AUC(0-t): 1130 ng·h/mL
human, plasma, po, 4 mg, plasma, Week 4, Japan, Low 4 mg once daily oral, n = 1, read-out: AUC0-24, mean
  AUC(0-t): 1130 ng·h/mL
human, plasma, po, 4 mg, plasma, Week 4, Japan, Low 4 mg once daily oral, n = 3, read-out: Cmax, Geometric mean
  Cmax: 56.2 ng/mL
human, plasma, po, 4 mg, plasma, Week 4, Japan, Low 4 mg once daily oral, n = 3, read-out: tmax, median
  Tmax: 4.33 h
human, plasma, po, 4 mg, plasma, Week 4, ROW, Low 4 mg once daily oral, n = 4, read-out: AUC0-24, Geometric mean
  AUC(0-t): 763 ng·h/mL
human, plasma, po, 4 mg, plasma, Week 4, ROW, Low 4 mg once daily oral, n = 4, read-out: AUC0-24, mean
  AUC(0-t): 766 ng·h/mL
human, plasma, po, 4 mg, plasma, Week 4, ROW, Low 4 mg once daily oral, n = 4, read-out: Cmax, Geometric mean
  Cmax: 41 ng/mL
human, plasma, po, 4 mg, plasma, Week 4, ROW, Low 4 mg once daily oral, n = 4, read-out: Cmax, mean
  Cmax: 41.6 ng/mL
human, plasma, po, 4 mg, plasma, Week 4, ROW, Low 4 mg once daily oral, n = 4, read-out: tmax, median
  Tmax: 1.96 h
human, plasma, po, 8 mg, plasma, Day 1, Japan, Mid 8 mg oral, n = 3, read-out: AUC0-24, Geometric mean
  AUC(0-t): 596 ng·h/mL
human, plasma, po, 8 mg, plasma, Day 1, Japan, Mid 8 mg oral, n = 3, read-out: AUC0-24, mean
  AUC(0-t): 623 ng·h/mL
human, plasma, po, 8 mg, plasma, Day 1, Japan, Mid 8 mg oral, n = 3, read-out: AUC0-48, Geometric mean
  AUC(0-t): 1070 ng·h/mL
human, plasma, po, 8 mg, plasma, Day 1, Japan, Mid 8 mg oral, n = 3, read-out: AUC0-48, mean
  AUC(0-t): 1130 ng·h/mL
human, plasma, po, 8 mg, plasma, Day 1, Japan, Mid 8 mg oral, n = 3, read-out: Cmax, Geometric mean
  Cmax: 29.9 ng/mL
human, plasma, po, 8 mg, plasma, Day 1, Japan, Mid 8 mg oral, n = 3, read-out: Cmax, mean
  Cmax: 31.3 ng/mL
human, plasma, po, 8 mg, plasma, Day 1, Japan, Mid 8 mg oral, n = 3, read-out: tmax, median
  Tmax: 4.02 h
human, plasma, po, 8 mg, plasma, Day 1, ROW, Mid 8 mg oral, n = 5, read-out: AUC0-24, Geometric mean
  AUC(0-t): 422 ng·h/mL
human, plasma, po, 8 mg, plasma, Day 1, ROW, Mid 8 mg oral, n = 5, read-out: AUC0-24, mean
  AUC(0-t): 457 ng·h/mL
human, plasma, po, 8 mg, plasma, Day 1, ROW, Mid 8 mg oral, n = 5, read-out: AUC0-48, Geometric mean
  AUC(0-t): 735 ng·h/mL
human, plasma, po, 8 mg, plasma, Day 1, ROW, Mid 8 mg oral, n = 5, read-out: AUC0-48, mean
  AUC(0-t): 776 ng·h/mL
human, plasma, po, 8 mg, plasma, Day 1, ROW, Mid 8 mg oral, n = 5, read-out: Cmax, Geometric mean
  Cmax: 23.8 ng/mL
human, plasma, po, 8 mg, plasma, Day 1, ROW, Mid 8 mg oral, n = 5, read-out: Cmax, mean
  Cmax: 26.3 ng/mL
human, plasma, po, 8 mg, plasma, Day 1, ROW, Mid 8 mg oral, n = 5, read-out: tmax, median
  Tmax: 4.17 h
human, plasma, po, 8 mg, plasma, Week 4, Japan, Mid 8 mg once daily oral, n = 3, read-out: AUC0-24, Geometric mean
  AUC(0-t): 1620 ng·h/mL
human, plasma, po, 8 mg, plasma, Week 4, Japan, Mid 8 mg once daily oral, n = 3, read-out: AUC0-24, mean
  AUC(0-t): 1650 ng·h/mL
human, plasma, po, 8 mg, plasma, Week 4, Japan, Mid 8 mg once daily oral, n = 3, read-out: Cmax, Geometric mean
  Cmax: 82.8 ng/mL
human, plasma, po, 8 mg, plasma, Week 4, Japan, Mid 8 mg once daily oral, n = 3, read-out: tmax, median
  Tmax: 2.12 h
human, plasma, po, 8 mg, plasma, Week 4, ROW, Mid 8 mg once daily oral, n = 5, read-out: AUC0-24, Geometric mean
  AUC(0-t): 1490 ng·h/mL
human, plasma, po, 8 mg, plasma, Week 4, ROW, Mid 8 mg once daily oral, n = 5, read-out: AUC0-24, mean
  AUC(0-t): 1510 ng·h/mL
human, plasma, po, 8 mg, plasma, Week 4, ROW, Mid 8 mg once daily oral, n = 5, read-out: Cmax, Geometric mean
  Cmax: 75.8 ng/mL
human, plasma, po, 8 mg, plasma, Week 4, ROW, Mid 8 mg once daily oral, n = 5, read-out: Cmax, mean
  Cmax: 77.8 ng/mL
human, plasma, po, 8 mg, plasma, Week 4, ROW, Mid 8 mg once daily oral, n = 5, read-out: tmax, median
  Tmax: 3.55 h

Source: patent US20230372313A1, “METHODS FOR REDUCING GLYCOSPHINGOLIPID CONCENTRATION IN BRAIN TISSUE AND METHODS OF TREATMENT OF NEURODEGENERATIVE DISEASES INVOLVING THE SAME” (GENZYME CORPORATION, priority 2020, published 2023)
